Laboratory results as given in patent US7635572B2, “Methods for conducting assays for enzyme activity on protein microarrays” (Life Technologies Corporation, priority 2004, dated 2009).
Read-outs that look alike come from different tables or passages of the source.

Assays:
Experiment in all cases: Further analysis of a plurality of inhibitors and a plurality of kinases on microarray (Example IX, Table 5);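 also: inhibition of each kinase by the inhibitors is given as a qualitative level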;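 as to Inhibition level, DYRK2: level 0 none or unclear Level 1 marginal Level 2 substantial inhibition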;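 as to Inhibition level, Homo sapiens in: level 0 none or unclear Level 1 marginal Level 2 substantial inhibition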;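 as to Inhibition level, Homo sapiens, o: level 0 none or unclear Level 1 marginal Level 2 substantial inhibition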;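 as to Inhibition level, LOC57118: level 0 none or unclear then 1 little or marginal then 2 substantial inhibition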;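 as to Inhibition level, MAP2K4: level 0 none or unclear Level 1 marginal Level 2 substantial inhibition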;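 as to Inhibition level, MAP3K7: level 0 none or unclear then 1 little or marginal then 2 substantial inhibition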;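 as to Inhibition level, TBK1: level 0 no or unclear inhibition to Level 2 substantial inhibition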
Type in all cases: biochemical
[1] = target: T1, plurality of kinases (Table 5) (Homo sapiens, UniProt O43318); conditions: plate G9
T1 sequence (O43318 1-606): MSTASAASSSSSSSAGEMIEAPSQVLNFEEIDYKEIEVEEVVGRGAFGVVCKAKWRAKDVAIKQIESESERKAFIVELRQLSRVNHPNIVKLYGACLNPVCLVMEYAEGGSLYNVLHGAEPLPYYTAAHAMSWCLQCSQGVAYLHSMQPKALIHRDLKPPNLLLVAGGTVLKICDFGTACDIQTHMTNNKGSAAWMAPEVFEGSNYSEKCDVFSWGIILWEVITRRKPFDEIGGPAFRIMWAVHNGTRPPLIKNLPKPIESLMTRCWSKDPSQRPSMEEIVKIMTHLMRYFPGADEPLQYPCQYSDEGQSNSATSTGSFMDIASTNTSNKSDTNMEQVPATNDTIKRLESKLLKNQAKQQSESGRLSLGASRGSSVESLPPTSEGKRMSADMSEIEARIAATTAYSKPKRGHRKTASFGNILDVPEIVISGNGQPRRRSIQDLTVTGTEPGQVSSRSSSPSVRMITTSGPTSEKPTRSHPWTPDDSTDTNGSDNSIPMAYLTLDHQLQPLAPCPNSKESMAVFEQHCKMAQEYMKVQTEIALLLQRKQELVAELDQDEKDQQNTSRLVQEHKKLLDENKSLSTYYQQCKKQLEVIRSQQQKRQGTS

[2] = target: T2, plurality of kinases (Table 5) (Homo sapiens, UniProt P45985)
T2 sequence (P45985 1-399): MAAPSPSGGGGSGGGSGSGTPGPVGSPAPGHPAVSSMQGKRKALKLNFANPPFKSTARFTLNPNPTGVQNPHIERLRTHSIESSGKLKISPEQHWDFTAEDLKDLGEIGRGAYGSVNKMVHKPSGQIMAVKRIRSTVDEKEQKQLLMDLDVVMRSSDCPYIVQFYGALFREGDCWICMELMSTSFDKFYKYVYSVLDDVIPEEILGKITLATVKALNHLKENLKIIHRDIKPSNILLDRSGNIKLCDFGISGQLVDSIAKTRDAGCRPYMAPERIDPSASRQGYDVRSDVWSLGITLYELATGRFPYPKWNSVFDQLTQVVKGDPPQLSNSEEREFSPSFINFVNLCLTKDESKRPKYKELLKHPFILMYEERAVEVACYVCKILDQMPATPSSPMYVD

[3] = target: plurality of kinases (Table 5) (Homo sapiens, UniProt Q05655); conditions: plate B2
[4] = target: plurality of kinases (Table 5) (Homo sapiens, UniProt Q8IU85); conditions: plate D2; inhibitor 100 uM
[5] = target: T3, plurality of kinases (Table 5) (Homo sapiens, UniProt Q92630); conditions: plate D11
T3 sequence (Q92630 1-601): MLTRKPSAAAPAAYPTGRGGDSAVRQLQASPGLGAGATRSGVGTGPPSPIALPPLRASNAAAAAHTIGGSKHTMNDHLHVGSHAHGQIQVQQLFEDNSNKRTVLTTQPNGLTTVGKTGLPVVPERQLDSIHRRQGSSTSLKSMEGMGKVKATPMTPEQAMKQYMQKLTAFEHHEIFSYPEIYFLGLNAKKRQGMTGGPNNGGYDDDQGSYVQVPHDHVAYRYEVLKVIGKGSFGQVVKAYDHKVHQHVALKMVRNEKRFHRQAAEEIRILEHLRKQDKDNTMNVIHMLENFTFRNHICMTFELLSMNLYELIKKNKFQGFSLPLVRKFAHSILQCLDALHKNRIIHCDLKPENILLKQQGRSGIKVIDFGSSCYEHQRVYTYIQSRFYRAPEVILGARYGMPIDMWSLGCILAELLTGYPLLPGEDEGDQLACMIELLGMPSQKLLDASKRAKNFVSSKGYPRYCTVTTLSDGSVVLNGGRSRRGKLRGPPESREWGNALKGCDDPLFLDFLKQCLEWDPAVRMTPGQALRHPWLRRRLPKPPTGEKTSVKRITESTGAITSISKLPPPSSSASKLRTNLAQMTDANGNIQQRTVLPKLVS

[6] = target: T4, plurality of kinases (Table 5) (Homo sapiens, UniProt Q9UHD2); conditions: plate G1; inhibitor 100 uM
T4 sequence (Q9UHD2 1-729): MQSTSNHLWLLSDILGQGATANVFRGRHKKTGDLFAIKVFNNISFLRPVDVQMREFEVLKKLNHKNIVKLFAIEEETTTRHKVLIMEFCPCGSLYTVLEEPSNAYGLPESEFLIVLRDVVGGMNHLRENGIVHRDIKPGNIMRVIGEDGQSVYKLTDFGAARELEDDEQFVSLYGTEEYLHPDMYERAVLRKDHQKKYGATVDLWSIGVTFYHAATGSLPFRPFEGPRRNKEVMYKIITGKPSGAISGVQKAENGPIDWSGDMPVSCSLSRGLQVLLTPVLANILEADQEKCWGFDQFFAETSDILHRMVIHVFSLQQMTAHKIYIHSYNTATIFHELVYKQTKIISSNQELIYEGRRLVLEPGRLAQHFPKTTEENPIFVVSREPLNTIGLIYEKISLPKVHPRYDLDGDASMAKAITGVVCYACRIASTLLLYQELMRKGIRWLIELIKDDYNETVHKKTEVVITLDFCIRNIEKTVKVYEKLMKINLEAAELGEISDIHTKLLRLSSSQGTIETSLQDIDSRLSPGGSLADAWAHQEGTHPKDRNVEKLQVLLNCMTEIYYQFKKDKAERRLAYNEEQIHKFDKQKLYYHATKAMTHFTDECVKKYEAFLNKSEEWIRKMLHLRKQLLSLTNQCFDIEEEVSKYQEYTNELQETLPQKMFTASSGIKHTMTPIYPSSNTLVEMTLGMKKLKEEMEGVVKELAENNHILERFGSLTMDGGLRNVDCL

[7] = target: plurality of kinases (Table 5) (Homo sapiens, UniProt Q9Y6E0); conditions: plate F11; inhibitor 100 uM
[8] = system: plurality of kinases (Table 5); conditions: for Inhibition level, Homo sapiens c: plate F4; for Inhibition level, Homo sapiens, o: plate F5; for Inhibition level, Homo sapiens, B: plate F7; for Inhibition level, Homo sapiens in: plate F9; for Inhibition level, Homo sapiens p: plate F10

Chain of plurality of kinases (Table 5) (Homo sapiens, UniProt Q8IU85) (Q8IU85 whole entry): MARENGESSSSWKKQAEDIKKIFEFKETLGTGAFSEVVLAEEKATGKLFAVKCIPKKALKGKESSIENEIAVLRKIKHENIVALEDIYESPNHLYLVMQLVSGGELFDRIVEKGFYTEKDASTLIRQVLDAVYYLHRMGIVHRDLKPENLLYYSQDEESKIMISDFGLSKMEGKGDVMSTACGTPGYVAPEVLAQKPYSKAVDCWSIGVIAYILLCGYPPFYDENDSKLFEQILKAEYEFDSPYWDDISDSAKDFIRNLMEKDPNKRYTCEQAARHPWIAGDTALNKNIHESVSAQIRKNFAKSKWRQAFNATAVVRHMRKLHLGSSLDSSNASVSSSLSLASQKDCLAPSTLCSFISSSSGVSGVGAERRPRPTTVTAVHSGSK
Chain of plurality of kinases (Table 5) (Homo sapiens, UniProt Q05655) (Q05655 whole entry): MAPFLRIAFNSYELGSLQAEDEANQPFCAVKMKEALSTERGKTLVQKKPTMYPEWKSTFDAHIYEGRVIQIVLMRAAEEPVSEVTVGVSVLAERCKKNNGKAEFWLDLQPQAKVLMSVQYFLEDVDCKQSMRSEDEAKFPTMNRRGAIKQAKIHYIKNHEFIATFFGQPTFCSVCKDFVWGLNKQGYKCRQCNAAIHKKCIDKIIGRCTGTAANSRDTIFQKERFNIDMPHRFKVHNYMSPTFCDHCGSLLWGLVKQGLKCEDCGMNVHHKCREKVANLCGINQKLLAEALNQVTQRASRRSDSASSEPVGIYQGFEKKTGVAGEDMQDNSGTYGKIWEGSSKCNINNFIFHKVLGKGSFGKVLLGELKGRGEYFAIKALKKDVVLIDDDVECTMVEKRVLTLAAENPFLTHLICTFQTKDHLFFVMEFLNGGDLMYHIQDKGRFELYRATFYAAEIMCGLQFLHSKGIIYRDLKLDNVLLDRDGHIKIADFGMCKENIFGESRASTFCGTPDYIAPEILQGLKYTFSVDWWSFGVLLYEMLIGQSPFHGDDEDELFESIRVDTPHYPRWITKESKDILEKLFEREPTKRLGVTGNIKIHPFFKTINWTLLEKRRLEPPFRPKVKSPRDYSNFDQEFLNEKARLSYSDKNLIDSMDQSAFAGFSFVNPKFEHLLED
Chain of plurality of kinases (Table 5) (Homo sapiens, UniProt Q9Y6E0) (Q9Y6E0 whole entry): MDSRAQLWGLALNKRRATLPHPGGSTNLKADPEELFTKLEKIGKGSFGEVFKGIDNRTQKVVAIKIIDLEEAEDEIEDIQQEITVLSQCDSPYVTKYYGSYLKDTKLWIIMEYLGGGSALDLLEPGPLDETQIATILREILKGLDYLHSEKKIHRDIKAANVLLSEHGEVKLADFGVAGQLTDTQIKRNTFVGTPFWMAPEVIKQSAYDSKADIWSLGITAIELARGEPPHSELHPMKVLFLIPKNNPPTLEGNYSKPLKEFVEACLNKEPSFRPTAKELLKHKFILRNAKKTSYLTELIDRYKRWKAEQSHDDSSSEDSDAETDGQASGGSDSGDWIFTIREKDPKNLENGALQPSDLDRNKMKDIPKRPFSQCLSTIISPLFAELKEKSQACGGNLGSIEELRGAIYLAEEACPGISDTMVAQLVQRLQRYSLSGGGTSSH

SMILES | Inhibition level, MAP3K7 ([1]; inhibitor 100 uM) | Inhibition level, MAP2K4 ([2]; plate E6, inhibitor 100 uM) | Inhibition level, PRKCD ([3]; inhibitor 100 uM) | Inhibition level, LOC57118 [4] | Inhibition level, DYRK2 ([5]; inhibitor 100 uM) | Inhibition level, TBK1 [6] | Inhibition level, STK24 [7] | Inhibition level, Homo sapiens, S ([8]; plate E9, inhibitor 100 uM) | Inhibition level, Homo sapiens, s ([8]; plate E11, inhibitor 100 uM) | Inhibition level, Homo sapiens, s ([8]; plate F3, inhibitor 100 uM) | Inhibition level, Homo sapiens c ([8]; inhibitor 100 uM) | Inhibition level, Homo sapiens, o ([8]; inhibitor 100 uM) | Inhibition level, Homo sapiens, S ([8]; plate F6, inhibitor 100 uM) | Inhibition level, Homo sapiens, B ([8]; inhibitor 100 uM) | Inhibition level, Homo sapiens, s ([8]; plate F8, inhibitor 100 uM) | Inhibition level, Homo sapiens in ([8]; inhibitor 100 uM) | Inhibition level, Homo sapiens p ([8]; inhibitor 100 uM) | further results
N#C/C(=C/c1ccc(O)c(O)c1)C(=O)NCc1ccccc1 [AG 490] | 0 | 0 | 0 | 1 | 2 | 2 | 2 | 0 | 2 | 0 | 2 | 2 | 0 | 2 | 0 | 1 | 2 | –
COc1cc2ncnc(Nc3cccc(Cl)c3)c2cc1OC [AG 1478] | 0 | 0 | 0 | 0 | 2 | 2 | 1 | 0 | 2 | 2 | 2 | 2 | 1 | 2 | 0 | 2 | 2 | –
O=c1c(-c2ccc(O)cc2)coc2cc(O)cc(O)c12 [Genistein] | 1 | 2 | 0 | 0 | 2 | 2 | 2 | 2 | 2 | 1 | 2 | 2 | 0 | 2 | 0 | 1 | 2 | Inhibition level, MAP3K7 ([1]; Genistein <3.7 mM): 0; Inhibition level, MAP2K4 ([2]; plate E6, Genistein <3.7 mM): 0; Inhibition level, PRKCD ([3]; Genistein, conc. not given): 0; Inhibition level, DYRK2 ([5]; Genistein, conc. not given): 1; Inhibition level, Homo sapiens, s ([8]; plate F3, Genistein, conc. not given): 0; Inhibition level, Homo sapiens, o ([8]; Genistein, conc. not given): 0; Inhibition level, Homo sapiens, S ([8]; plate F6, Genistein, conc. not given): 0; Inhibition level, Homo sapiens, B ([8]; Genistein, conc. not given): 0; Inhibition level, Homo sapiens, s ([8]; plate F8, Genistein, conc. not given): 0; Inhibition level, Homo sapiens in ([8]; Genistein, conc. not given): 0; Inhibition level, Homo sapiens p ([8]; Genistein, conc. not given): 2
O=S(=O)(NCCNC/C=C/c1ccc(Br)cc1)c1cccc2cnccc12 [H-89] | 2 | 1 | 1 | 1 | 2 | 2 | 2 | 2 | 1 | 2 | 2 | 1 | 2 | 0 | 1 | 2 | 2 | –
O=c1c(O)c(-c2ccc(O)c(O)c2)oc2cc(O)cc(O)c12 [Quercetin] | – | 0 | 0 | 0 | 2 | 0 | – | – | – | – | – | – | – | – | – | – | – | –
CN[C@@H]1C[C@H]2O[C@@](C)([C@@H]1OC)n1c3ccccc3c3c4c(c5c6ccccc6n2c5c31)C(=O)NC4 [Staurosporine] | – | – | – | – | – | – | – | – | – | – | – | – | – | – | – | – | – | Inhibition level, MAP2K4 [2]: 0
